*1 amine or outer side, *2 acyl side, *3 side chain or, on linkers, in order; H or OH if unused. Where a SMILES comes first, the peptide text is derived from it. Where no end group is shown, it is not given here. Side-chain parts run from the residue outwards. [ ]: non-standard residue; d: D form. Thyronine(3,5,3'-I3) = N[C@@H](Cc1cc(I)c(Oc2ccc(O)c(I)c2)c(I)c1)C(=O)O; γGlu = O=C(O)[C@H](CCC(=O)[*:2])N[*:1]
Tests used:
[1] = type: in vitro ADME, human
Method: Each compound was incubated with phosphate buffered saline (PBS, pH=7.4) containing 60% mouse plasma at 37° C. for the duration of the study. At the time points of 6 h, 24 h and 72 h, aliquots of the incubated solutions were withdrawn and diluted with acetonitrile to precipitate the plasma proteins, which were subsequently removed by microcentrifugation at 13,000 rpm for 5 mins. The supernatant was collected and diluted for the analytical reversed-phase HPLC using a linear gradient of buffer B over buffer A (A: 10% aqueous acetonitrile, 0.1% TFA; B: 90% aqueous acetonitrile, 0.1% TFA) on a Zorbax C8 column (4.6×50 mm). RNA-Seq Total RNAs were extracted from frozen liver samples of 4 independent mice per group (vehicle, glucagon only, T3 only, co-administration of glucagon and T3 and glucagon/T3) using TriPure RNA reagent (Sigma). Poly-A isolation, library generation and amplification were performed according to the protocol of the mRNASeq Library Prep Kit (Lexogen). […] Mapping of color-coded reads on the mouse genome (mm10 assembly) was performed using the Lifescope software (Life Technologies). Reads for annotated (Ensembl) genes were counted using HtSeq. […] The synergy score (SS) was calculated as the relative fold change (FC) of (glucagon/T3) compared to the maximum FC of T3 and glucagon alone: SS=FC (glucagon/T3)/max (T3, glucagon). […]

DIO mice = test: Cardiac function and histology in DIO mice (echocardiography); type: in vivo, mouse; conditions: mouse, in vivo
Method: After chronic treatment, HFHCD-fed or HFHSD-fed C57B16/j male mice (age) were sacrificed with CO2, body weight as well as heart weights and tibia length was taken during necropsy. Livers and whole hearts were embedded in paraffin using a vacuum infiltration processor TissueTEK VIP (Sakura). 3 μm thick slides were cut using a HMS35 rotatory microtome (Zeiss) and H & E staining was performed. For H & E staining, rehydration was done in a decreasing ethanol series, rinsing with tapwater, 2 min Mayers acid Hemalum, bluing in tapwater followed by lmin EosinY (both BioOptica). Dehydration was performed in increasing ethanol series, mounting with Pertex® (Medite GmbH) and coverslips (CarlRoth Chemicals). The slides were evaluated independently using a brightfield microscope (Axioplan, Zeiss). Photos were taken using the Hamamatsu-Nanozoomer HT2.0 in 1.25×, 5×. 20× and 40× magnification. The hepatic steatosis score is defined as the unweighted sum of the three individual scores for steatosis, lobular inflammation and ballooning degeneration. Steatosis is graded by the presence of fat vacuoles in liver cells according to the percentage of affected tissue (0: <5%; 1: 5-33%; 2: 33-66%; 3: >66%). Lobular inflammation is scored by overall assessment of inflammatory foci per 200× field (0: no foci; 1: <2 foci; 2: 2-4 foci; 3: >4 foci). The individual score for ballooning degeneration ranges from 0 (none), 1 (few cells) to 2 (many cells). Total scores range from 0 to 8 with scores <2 considered non-steatosis, 3 considered as borderline steatosis, 4-5 considered onset of steatosis, and >6 considered steatosis. Different to liver and heart, inguinal fat pad samples were embedded in paraffin using Leica embedding machine (EG1150 H) and cut in 5 μm sections using Leica Microtome (RM2255) to perform H&E staining. Samples were stained with hematoxyline for 4 minutes and eosinY for 2 minutes and fixed with Roti®-Histokitt (Carl Roth) before analysing them independently using Microscope Scope A.1 (Zeiss).
For transthoracic echocardiography, a Vevo2100 Imaging System (VisualSonics Inc., Toronto Canada) with a 30 MHz probe was used. All echocardiograms were performed on conscious animals to prevent anesthesia-related impairment of cardiac function as reported previously. Briefly, echocardiograms were obtained in parasternal long and short axis views. For accurate linear measurements of LV internal dimensions (LVID) and […] (LVPW) or septal (IVS) wall thicknesses, M-mode images of the heart in parasternal short-axis view at the level of the papillary muscle were acquired. Qualitative and quantitative measurements were made offline using analytical software (VisualSonics Inc.). Fractional shortening (FS) was calculated as FS %=[(LVIDd−LVIDs)/LVIDd]×100. Ejection fraction (EF) was calculated as EF %=100*((LVvolD−LVvolS)/LVvolD) with LVvol=((7.0/(2.4+LVID)*LVID^3). The corrected LV mass (LV MassCor) was calculated as LV MassCor=0.8(1.053*((LVIDd+LVPWd+IVSd)^3−LVIDd^3)). Heart rate and respiration rate were determined from M-mode tracings, using 3 consecutive intervals.
Gene expression profiling in the liver, iWAT, eWAT, BAT, and heart were performed following treatment of mice according to the treatment paradigms explained in the figure legends for each specific analsysis. For tissue collection, mice were fasted for 4 h and treated with compounds 2 h prior to tissue collection. Gene expression was profiled with quantitative real-time RT-PCR using either TaqMan single probes or with specifically-designed TaqMan low-density array cards. The relative expression of the selected genes was normalized to the reference gene hypoxanthine-guanine phosphoribosyltransferase (Hprt).

[2] = system: HFHSD-fed male C57Bl6j mice; test: Metabolic efficacy of different glucagon/T3 conjugate versions in HFHSD-fed mice; type: in vivo, mouse; conditions: 100 nmol kg-1 daily, 14 days
Excerpt: For studies on lipid handling in wildtype mice (Western mice), male C57Bl/6j mice (Jackson Laboratories) were fed a atherogenic Western diet (Research Diets D12079B), which is a high-cholesterol diet (0.21% gm %) with 41% kcal from fat, 43% kcal from carbohydrates, and 17% kcal from protein. For studies on energy metabolism in obese mice (DIO mice), male C57Bl/6j mice (Jackson Laboratories) were fed a diabetogenic diet (Research Diets D12331), which is a high-sucrose diet with 58% kcal from fat 25.5% kcal from carbohydrates, and 16.4% kcal from protein. Both dietary challenges began at 8 weeks of age. HFHSD and HFHCD mice were single- or group-housed on a 12:12-h light-dark cycle at 22° C. with free access to food and water. Mice were maintained under these conditions for a minimum of 16 weeks before initiation of pharmacological studies and were between the ages of 6 months to 12 months old. All injections and tests were performed during the light cycle. Compounds were administered in a vehicle of 1% Tween-80 and 1% DMSO and were given by daily subcutaneous injections at the indicated doses at a volume of 5 μl per g body weight. Mice were randomized and evenly distributed to test groups according to body weight and body composition. If ex vivo molecular biology/histology/biochemistry analyses were performed, the entire group of mice for each treatment was analyzed and scored in a blinded fashion.
Compounds were administered by repeated subcutaneous injections in the middle of the light phase at the indicated doses with the indicated durations. Co-administration of compounds was administered by single formulated injections. Body weights and food intake were measured every day or every other day after the first injection. All studies with wild-type mice were performed with a group size of n=8 or greater using mice on a C57B16j background.
Blood was collected at the indicated times from tail veins or after euthanasia using EDTA-coated microvette tubes (Sarstedt), immediately chilled on ice, centrifuged at 5,000 g and 4° C., and plasma was stored at −80° C. For […] (FPLC) of cholesterol distribution in different lipoprotein fractions, fresh plasma from each treatment group was pooled (n=6-8) and ran over two Superose 6 HR columns in tandem. Cholesterol levels in the collected fractions were determined by colorimetric assay. Plasma insulin and T3 were quantified by an ELISA assay (Ultrasenstive Mouse Insulin ELISA and Rodent T3 ELISA; Alpco). Plasma FGF21 was quantified by an ELISA assay (Mouse FGF21 ELISA; Millipore). Plasma cholesterol, extracted hepatic cholesterol, triglycerides, ALT, and AST were measured using enzymatic assay kits (Thermo Fisher). Plasma creatinine and blood urea nitrogen were measured using enzymatic assay kits (Abcam). Plasma free fatty acids were measured using enzymatic assay kits (Wako). All assays were performed according to the manufacturers' instructions.

Compound | degradation in plasma [1] | heart histology: thyrotoxic cardiomyopathy (DIO mice) | whole heart expression of T3-sensitive genes (Dio2, Ucp2) (DIO mice) | whole heart expression of hypertrophic gene markers (Nppa, Nppb) (DIO mice) | body weight lowering [2] | cholesterol lowering effect [2] | lipid lowering [2]
CSCC[C@H](NC(=O)[C@H](CC(C)C)NC(=O)[C@H](Cc1c[nH]c2ccccc12)NC(=O)[C@H](CCC(N)=O)NC(=O)[C@@H](NC(=O)[C@H](Cc1ccccc1)NC(=O)[C@H](CC(=O)O)NC(=O)[C@H](CCC(N)=O)NC(=O)[C@H](C)NC(=O)[C@H](CCCNC(=N)N)NC(=O)[C@H](CCCNC(=N)N)NC(=O)[C@H](CO)NC(=O)[C@H](CC(=O)O)NC(=O)[C@H](CC(C)C)NC(=O)[C@H](Cc1ccc(O)cc1)NC(=O)[C@H](CCCCN)NC(=O)[C@H](CO)NC(=O)[C@H](Cc1ccc(O)cc1)NC(=O)[C@H](CC(=O)O)NC(=O)[C@H](CO)NC(=O)[C@@H](NC(=O)[C@H](Cc1ccccc1)NC(=O)[C@@H](NC(=O)CNC(=O)[C@H](CCC(N)=O)NC(=O)[C@@H](CO)NC(=O)[C@@H](N)Cc1c[nH]cn1)[C@@H](C)O)[C@@H](C)O)C(C)C)C(=O)N[C@@H](CC(N)=O)C(=O)NCC(=O)NCC(=O)N1CCC[C@H]1C(=O)N[C@@H](CO)C(=O)N[C@@H](CO)C(=O)NCC(=O)N[C@@H](C)C(=O)N1CCC[C@H]1C(=O)N1CCC[C@H]1C(=O)N1CCC[C@H]1C(=O)N[C@@H](CO)C(=O)N[C@@H](CCCCNC(=O)CC[C@H](NC(=O)[C@@H](N)Cc1cc(I)c(Oc2ccc(O)c(I)c2)c(I)c1)C(=O)O)C(N)=O [glucagon/T3] (H-H[dS]QGTFTSDYSKYLDSRRAQDFVQWLMNGGPSSGAPPPSK([γGlu-Thyronine(3,5,3'-I3)])-NH2; N-terminus assumed) | remains intact with nearly no detectable degradation | none of these manifestations of thyrotoxicity or thyroid hormone induced cardiomyopathy were detectable | did not appear to be regulated | did not appear to be regulated | – | – | –
glucagon/iT3: inverted attachment: amine of T3 covalently linked to the glucagon analog through a succinate spacer at Lys40 (H[dS]QGTFTSDYSKYLDSRRAQDFVQWLMNGGPSSGAPPPSK; not fully specified (residue 40)) | – | – | – | – | failed to lower body weight | not evident | did not lower lipids
glucagon/rT3: reverse T3 (rT3) coupled to the glucagon analog with the same linker chemistry as glucagon/T3 (H[dS]QGTFTSDYSKYLDSRRAQDFVQWLMNGGPSSGAPPPSK; not fully specified (residue 40); also: reverse T3 (rT3) coupled with same linker chemistry as glucagon/T3) | – | – | – | – | failed to lower body weight | not evident | did not lower lipids
